# Assay results from patent US9133115B2 (ACHILLION PHARMACEUTICALS, INC., priority 2008, dated 2015).
# pEC50: −log10 of the molar value.
# Test system: HCV replicon
# Assay: HCV replicon replication assay (NPT ELISA) in Huh-7 replicon-containing cells
# Format: cell-based
# Conditions: Hepatitis C virus, 72 h; HCV replicon in Huh-7 cells, three days incubation; read-out: EC50
# Summary of the method: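 Replication was scored by capture ELISA of neomycin phosphotransferase, whose level tracks replicon replication, after graded compound treatment. The cells were Huh-7 harbouring an HCV-IRES/neo/EMCV-IRES/NS3–NS5B/3′-NTR replicon, plated at 6000-7500 cells/well and dosed 24 h later at 60-70% confluence; interferon alpha was the positive control.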
row,SMILES,pEC50
1,"C=C[C@H]1C[C@]1(NC(=O)[C@@H]1C[C@@H](Oc2cc(-c3ccccc3)nc3cc(OC)ccc23)CN1C(=O)C[C@@H](CC1CCCC1)C(=O)N1CCCCC1)C(=O)NS(=O)(=O)C1CC1 [Compound 56, (2S,4R)-1-((R)-3-(cyclopentyl-methyl)-4-oxo-4-(piperidin-1-yl)butanoyl)-N-((1R,2R)-1-(cyclopropyl-sulfonylcarbamoyl)-2-vinylcyclopropyl)-4-(7-methoxy-2-phenylquinolin-4-yloxy)pyrrolidine-2-carboxamide]",5.00 to 6.00
2,"C=C[C@@H]1C[C@]1(NC(=O)[C@@H]1C[C@@H](Oc2cc(-c3ccccc3)nc3cc(OC)ccc23)CN1C(=O)[C@@H](CC(=O)N1CCCCC1)C(C)(C)C)C(=O)NS(=O)(=O)CC [Compound 120, (2S,4R)-1-((S)-2-tert-butyl-4-oxo-4-(piperidin-1-yl)butanoyl)-N-((1R,2S)-1-(ethyl-sulfonylcarbamoyl)-2-vinylcyclopropyl)-4-(7-methoxy-2-phenylquinolin-4-yloxy)pyrrolidine-2-carboxamide]",> 6.00
3,"C=C[C@@H]1C[C@]1(NC(=O)[C@@H]1C[C@@H](OC(=O)Nc2ccc(-c3ccccc3)cc2)CN1C(=O)[C@@H](CC(=O)N1CCCCC1)C(C)(C)C)C(=O)NS(=O)(=O)C1CC1 [Compound 61, (3R,5S)-1-((S)-2-tert-butyl-4-oxo-4-(piperidin-1-yl)butanoyl)-5-((1R,2S)-1-(cyclopropyl-sulfonylcarbamoyl)-2-vinylcyclopropyl-carbamoyl)pyrrolidin-3-yl biphenyl-4-ylcarbamate]",5.00 to 6.00
4,"C=C[C@@H]1C[C@]1(NC(=O)[C@@H]1C[C@@H](Oc2cc(-c3ccccc3)nc3cc(OC)ccc23)CN1C(=O)[C@H](CC(=O)N1CCCCC1)C(C)(C)C)C(=O)NS(=O)(=O)C1CC1 [Compound 134, (2S,4R)-1-((R)-2-tert-butyl-4-oxo-4-(piperidin-1-yl)butanoyl)-N-((1R,2S)-1-(cyclo-propylsulfonyl-carbamoyl)-2-vinylcyclopropyl)-4-(7-methoxy-2-phenylquinolin-4-yloxy)pyrrolidine-2-carboxamide]",5.00 to 6.00
5,"C=C[C@@H]1C[C@]1(NC(=O)[C@@H]1C[C@@H](Oc2cc(-c3ccccc3)nc3cc(OC)ccc23)CN1C(=O)[C@@H](CC(=O)N1CCCCC1)C(C)(C)C)C(=O)NS(=O)(=O)C(C)C [Compound 63, (2S,4R)-1-((S)-2-tert-butyl-4-oxo-4-(piperidin-1-yl)butanoyl)-N-((1R,2S)-1-(isopropylsulfonyl-carbamoyl)-2-vinylcyclopropyl)-4-(7-methoxy-2-phenylquinolin-4-yloxy)pyrrolidine-2-carboxamide]",> 6.00
6,"C=C[C@@H]1C[C@]1(NC(=O)[C@@H]1C[C@@H](Oc2cc(-c3ccccc3)nc3ccc(OC)cc23)CN1C(=O)[C@@H](CC(=O)N1CCCCC1)C(C)(C)C)C(=O)NS(=O)(=O)C1CC1 [Compound 229, (2S,4R)-1-((S)-2-tert-butyl-4-oxo-4-(piperidin-1-yl)butanoyl)-N-((1R)-1-(cyclopropyl-sulfonylcarbamoyl)-2-vinylcyclopropyl)-4-(6-methoxy-2-phenylquinolin-4-yloxy)pyrrolidine-2-carboxamide]",> 6.00
7,"C=C[C@@H]1C[C@]1(NC(=O)[C@@H]1C[C@@H](Oc2cc(-c3ccccc3)nc3cc(OC)ccc23)CN1C(=O)[C@@H](CC(=O)N1CCC1)C(C)(C)C)C(=O)NS(=O)(=O)C1CC1 [Compound 222, (2S,4R)-1-((S)-4-(azetidin-1-yl)-2-tert-butyl-4-oxobutanoyl)-N-((1R)-1-(cyclopropyl-sulfonylcarbamoyl)-2-vinylcyclopropyl)-4-(7-methoxy-2-phenylquinolin-4-yloxy)pyrrolidine-2-carboxamide]",> 6.00
8,"C=C[C@@H]1C[C@]1(NC(=O)[C@@H]1C[C@@H](N(Cc2ccccn2)C(=O)n2c3ccccc3c3ccccc32)CN1C(=O)[C@@H](CC(=O)N1CCC(F)(F)C1)C(C)(C)C)C(=O)NS(=O)(=O)C1CC1 [Compound 193, N-((3R,5S)-1-((S)-2-tert-butyl-4-(3,3-difluoropyrrolidin-1-yl)-4-oxobutanoyl)-5-((1R)-1-(cyclopropylsulfonyl-carbamoyl)-2-vinylcyclopropyl-carbamoyl)pyrrolidin-3-yl)-N-(pyridin-2-ylmethyl)-9H-carbazole-9-carboxamide]",> 6.00
9,"CC(C)(C)[C@H](CC(=O)N1CCCCC1)C(=O)N1C[C@H](n2cnc3ccccc32)C[C@H]1C(=O)NCC(=O)NS(=O)(=O)C1CC1 [Compound 127, (2S,4R)-4-(1H-benzo[d]imidazol-1-yl)-1-((S)-2-tert-butyl-4-oxo-4-(piperidin-1-yl)butanoyl)-N-(2-(cyclopropane-sulfonamido)-2-oxoethyl)pyr-rolidine-2-carboxamide]",5.00 to 6.00
10,"C=C[C@@H]1C[C@]1(NC(=O)[C@@H]1C[C@@H](Oc2cc(-c3ccccc3)nc3cc(OC)ccc23)CN1C(=O)[C@@H](CC(=O)N1CCC(F)(F)C1)C(C)(C)C)C(=O)NS(=O)(=O)C1CC1 [Compound 89, (2S,4R)-1-((S)-2-tert-butyl-4-(3,3-difluoropyrrolidin-1-yl)-4-oxobutanoyl)-N-((1R,2S)-1-(cyclopropylsulfonyl-carbamoyl)-2-vinylcyclopropyl)-4-(7-methoxy-2-phenylquinolin-4-yloxy)pyrrolidine-2-carboxamide]",> 6.00
11,"C=C[C@@H]1C[C@]1(NC(=O)[C@@H]1C[C@@H](Oc2cc(-c3ccccc3)nc3cc(OC)ccc23)CN1C(=O)[C@@H](CC(=O)N1CCC(C(F)(F)F)CC1)C(C)(C)C)C(=O)NS(=O)(=O)C1CC1 [Compound 80, (2S,4R)-1-((S)-2-tert-butyl-4-oxo-4-(4-(trifluoro-methyl)piperidin-1-yl)butanoyl)-N-((1R,2S)-1-(cyclopropyl-sulfonylcarbamoyl)-2-vinylcyclopropyl)-4-(7-methoxy-2-phenylquinolin-4-yloxy)pyrrolidine-2-carboxamide]",> 6.00
12,"C=C[C@@H]1C[C@]1(NC(=O)[C@@H]1C[C@@H](Oc2cc(-c3ccccc3)nc3cc(OC)ccc23)CN1C(=O)[C@@H](CC(=O)N1CCCC1C(=O)Nc1nccs1)C(C)(C)C)C(=O)NS(=O)(=O)C1CC1 (stereo partly drawn) [Compound 212, (2S,4R)-1-((S)-2-tert-butyl-4-oxo-4-((S)-2-(thiazol-2-ylcarbamoyl)pyr-rolidin-1-yl)butanoyl)-N-((1R)-1-(cyclo-propylsulfonyl-carbamoyl)-2-vinylcyclopropyl)-4-(7-methoxy-2-phenylquinolin-4-yloxy)pyrrolidine-2-carboxamide]",> 6.00
13,"C=C[C@@H]1C[C@]1(NC(=O)[C@@H]1C[C@@H](Oc2cc(-c3ccccc3)nc3cc(OC)ccc23)CN1C(=O)[C@@H](CC(=O)N1CCCC(F)C1)C(C)(C)C)C(=O)NS(=O)(=O)C1CC1 (stereo partly drawn) [Compound 83, (2S,4R)-1-((2S)-2-tert-butyl-4-(3-fluoropiperidin-1-yl)-4-oxobutanoyl)-N-((1R,2S)-1-(cyclopropyl-sulfonylcarbamoyl)-2-vinylcyclopropyl)-4-(7-methoxy-2-phenylquinolin-4-yloxy)pyrrolidine-2-carboxamide]",> 6.00
